Test results published in US8859549B2, “Potassium channel modulators” (AbbVie, Inc., priority 2011, dated 2014).

Tests used:
KCNQ 2/3 channels = biological target: T1, KCNQ 2/3 channels (Homo sapiens, UniProt O43525+O43526); assay: KCNQ 2/3 channel activation, thallium flux FLIPR assay (BTC-AM dye); format: cell-based; settings: for Emax: HEK293, maximum response relative to the response of 10 μM retigabine (set at 100%), read-out: % MAX; for EC50: HEK293 cells stably expressing human KCNQ2 and KCNQ3 subunits, thallium-induced fluorescence, 4 min compound incubation
T1 construct: expressed in transfected cells; host or cells: HEK293
Summary of the method: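 HEK293 cells stably expressing human KCNQ2/KCNQ3 were loaded with BTC-AM (3 μg/mL, 2 h, RT) and preincubated with compound for 4 min in pH 7.3 gluconate buffer containing 0.1 mM ouabain. Flux was triggered by 6 mM TlNO3/10 mM K2SO4 and read for 3 min; EC50 came from summed responses over basal, with maximum relative to 10 μM retigabine (100%).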

Sprague-Dawley rats = assay: Spinal Nerve Ligation (SNL) model of neuropathic pain, tactile allodynia; format: in vivo, rat; settings: about 30 mg/kg i.p., 30 minutes or more before testing
Text: Adult male Sprague-Dawley rats (250-300 g body weight, Charles River Laboratories, Portage, Mich.) were used. Animal handling and experimental protocols were approved by the Institutional Animal Care and Use Committee (IACUC) at Abbott Laboratories. For all surgical procedures, animals were maintained under isoflurane anesthesia (4-5% to induce, 1-3% to maintain), and the incision sites were sterilized using a 10% povidone-iodine solution prior to and after surgeries.
Tactile (mechanical) allodynia was measured using calibrated von Frey filaments (Stoelting, Wood Dale, Ill.) as described in Chaplan, S. R., F. W. Bach, J. M. Pogrel, J. M. Chung and T. L. Yaksh, 1994, Quantitative assessment of tactile allodynia in the rat paw, J. Neurosci. Methods, 53, 55. Rats were placed into inverted individual plastic containers (20×12.5×20 cm) on top of a suspended wire mesh grid, and acclimated to the test chambers for 20 minutes. The von Frey filaments were presented perpendicularly to the plantar surface of the selected hind paw, and then held in this position for approximately 8 sec with enough force to cause a slight bend in the filament. Positive responses included an abrupt withdrawal of the hind paw from the stimulus, or flinching behavior immediately following removal of the stimulus. A 50% withdrawal threshold was determined using an up-down procedure (Dixon, W. J., 1980, Efficient analysis of experimental observations, Ann. Rev. Pharmacol. Toxicol., 20, 441). […] Tactile allodynia thresholds were also assessed in several control groups, including naive, sham-operated, and saline infused animals as well as in the contralateral paws of nerve-injured rats. To evaluate the anti-nociceptive effects, animals were administered vehicle or test compound and tactile allodynia was assessed 30 minutes after i.p. administration.
A model of spinal nerve ligation-induced (SNL model) neuropathic pain as originally described by Kim and Chung (Kim, S. H. and J. M. Chung, 1992, Pain 50, 355) was used to test a compound of the present application The left L5 and L6 spinal nerves of the rat were isolated adjacent to the vertebral column and tightly ligated with a 5-0 silk suture distal to the DRG, and care taken to avoid injury of the L4 spinal nerve. The same procedure was performed on Sham rats, but without nerve ligation. All animals were allowed to recover for at least one week and not more than three weeks prior to assessment of tactile allodynia.
Compounds were injected (i.p) 30 minutes or more before testing.

Compound | Emax (KCNQ 2/3 channels; HEK293 KCNQ2/KCNQ3 cells) | EC50 (KCNQ 2/3 channels) | change in paw withdrawal latency versus vehicle (Sprague-Dawley rats) | % MAX (KCNQ 2/3 channels; maximum response relative to the response of 10 μM retigabine (set at 100%), HEK293 KCNQ2/KCNQ3 cells)
O=C(CC1CC2CCC1C2)Nn1nc(-c2ccc(C(F)(F)F)nc2)c2ccccc2c1=O (racemic) [Example 43, (±)-2-[(exo)-bicyclo[2.2.1]hept-2-yl]-N-{1-oxo-4-[6-(trifluoromethyl)pyridin-3-yl]phthalazin-2(1H)-yl}acetamide] | 149% | 143 nM | statistically significant change | 
O=C(CC1CC2CCC1C2)Nn1nc(-c2ccnc(C(F)(F)F)c2)c2ccccc2c1=O (racemic) [Example 76, (±)-2-[(exo)-bicyclo[2.2.1]hept-2-yl]-N-{1-oxo-4-[2-(trifluoromethyl)pyridin-4-yl]phthalazin-2(1H)-yl}acetamide] | 127% | 126 nM | statistically significant change | 
CC(C)(C)OC(=O)NCc1nn(NC(=O)Cc2ccc(Cl)cc2)c(=O)c2ccccc12 [Example 41, tert-butyl[(3-{[(4-chlorophenyl)acetyl]amino}-4-oxo-3,4-dihydrophthalazin-1-yl)methyl]carbamate] | 90.3% | 975 nM | statistically significant change | 
O=C(Cc1cc(F)cc(F)c1)Nn1nc(S(=O)(=O)c2ccccc2)c2ccccc2c1=O [Example 68, 2-(3,5-difluorophenyl)-N-[1-oxo-4-(phenylsulfonyl)phthalazin-2(1H)-yl]acetamide] | 79.9% | 69.9 nM | statistically significant change | 
O=C(Cc1ccc(Cl)cc1)Nn1nc(S(=O)(=O)c2ccccc2)c2ccccc2c1=O [Example 69, 2-(4-chlorophenyl)-N-[1-oxo-4-(phenylsulfonyl)phthalazin-2(1H)-yl]acetamide] | 118% | 40.9 nM | statistically significant change | 
C[C@@H]1CN(c2nn(NC(=O)Cc3ccc(Cl)cc3)c(=O)c3ccccc23)C[C@H](C)O1 [Example 81, 2-(4-chlorophenyl)-N-{4-[cis-2,6-dimethylmorpholin-4-yl]-1-oxophthalazin-2(1H)-yl}acetamide] | 85.1% | 663 nM | statistically significant change | 
Cc1cccc(CC(=O)Nn2nc(S(=O)(=O)c3ccccc3)c3ccccc3c2=O)c1 [Example 207, 2-(3-methylphenyl)-N-[1-oxo-4-(phenylsulfonyl)phthalazin-2(1H)-yl]acetamide] | 69.9% | 306 nM |  | 
O=C(Cc1cccc(C(F)(F)F)c1)Nn1nc(S(=O)(=O)c2ccccc2)c2ccccc2c1=O [Example 208, N-[1-oxo-4-(phenylsulfonyl)phthalazin-2(1H)-yl]-2-[3-(trifluoromethyl)phenyl]acetamide] | 33.3% |  |  | 
O=C(Cc1cccc(Cl)c1)Nn1nc(S(=O)(=O)c2ccccc2)c2ccccc2c1=O [Example 209, 2-(3-chlorophenyl)-N-[1-oxo-4-(phenylsulfonyl)phthalazin-2(1H)-yl]acetamide] | 80.9% | 77.4 nM |  | 
O=C(CC12CC3CC(CC1C3)C2)Nn1nc(N2CCOCC2)c2ccccc2c1=O [Example 210, 2-(hexahydro-2,5-methanopentalen-3a(1H)-yl)-N-[4-(morpholin-4-yl)-1-oxophthalazin-2(1H)-yl]acetamide] | 154% | 164 nM |  | 
O=C(CC12CC3CC(CC1C3)C2)Nn1nc(-c2ccc(C(F)(F)F)nc2)c2ccccc2c1=O [Example 211, 2-(hexahydro-2,5-methanopentalen-3a(1H)-yl)-N-{1-oxo-4-[6-(trifluoromethyl)pyridin-3-yl]phthalazin-2(1H)-yl}acetamide] | 137% | 201 nM |  | 
O=C(Cc1cc(F)cc(F)c1)Nn1nc(SCc2ccccc2)c2ccccc2c1=O [Example 212, N-[4-(benzylsulfanyl)-1-oxophthalazin-2(1H)-yl]-2-(3,5-difluorophenyl)acetamide] | 109% | 152 nM |  | 
O=C(Cc1ccc(Cl)cc1)Nn1nc(SCc2ccccc2)c2ccccc2c1=O [Example 213, N-[4-(benzylsulfanyl)-1-oxophthalazin-2(1H)-yl]-2-(4-chlorophenyl)acetamide] | 123% | 30.3 nM |  | 
O=C(Cc1cc(F)cc(F)c1)Nn1nc(S(=O)(=O)Cc2ccccc2)c2ccccc2c1=O [Example 215, N-[4-(benzylsulfonyl)-1-oxophthalazin-2(1H)-yl]-2-(3,5-difluorophenyl)acetamide] | 45% | 916 nM |  | 
O=C(Cc1ccc(Cl)cc1)Nn1nc(S(=O)(=O)Cc2ccccc2)c2ccccc2c1=O [Example 216, N-[4-(benzylsulfonyl)-1-oxophthalazin-2(1H)-yl]-2-(4-chlorophenyl)acetamide] | 67.1% | 1840 nM |  | 
O=C(CC12CC3CC(CC1C3)C2)Nn1nc(S(=O)(=O)c2ccccc2)c2ccccc2c1=O [Example 218, 2-(hexahydro-2,5-methanopentalen-3a(1H)-yl)-N-[1-oxo-4-(phenylsulfonyl)phthalazin-2(1H)-yl]acetamide] | 151% | 58.3 nM |  | 
CCC1CN(c2nn(NC(=O)Cc3ccc(Cl)cc3)c(=O)c3ccccc23)CCO1 (stereo not shown) [Example 221, 2-(4-chlorophenyl)-N-[4-(2-ethylmorpholin-4-yl)-1-oxophthalazin-2(1H)-yl]acetamide] | 101% | 320 nM |  | 
N#Cc1ccc(S(=O)(=O)c2nn(NC(=O)Cc3ccc(Cl)cc3)c(=O)c3ccccc23)cc1 [Example 222, 2-(4-chlorophenyl)-N-{4-[(4-cyanophenyl)sulfonyl]-1-oxophthalazin-2(1H)-yl}acetamide] | 90% | 97.9 nM |  | 
N#Cc1ccc(S(=O)(=O)c2nn(NC(=O)Cc3cc(F)cc(F)c3)c(=O)c3ccccc23)cc1 [Example 223, N-{4-[(4-cyanophenyl)sulfonyl]-1-oxophthalazin-2(1H)-yl}-2-(3,5-difluorophenyl)acetamide] | 86.2% | 149 nM |  | 
N#Cc1ccc(S(=O)(=O)c2nn(NC(=O)Cc3ccc(F)cc3)c(=O)c3ccccc23)cc1 [Example 224, N-{4-[(4-cyanophenyl)sulfonyl]-1-oxophthalazin-2(1H)-yl}-2-(4-fluorophenyl)acetamide] | 75.2% | 155 nM |  | 
CC(C)(CC(=O)Nn1nc(S(=O)(=O)c2ccc(C#N)cc2)c2ccccc2c1=O)c1ccccc1 [Example 225, N-{4-[(4-cyanophenyl)sulfonyl]-1-oxophthalazin-2(1H)-yl}-3-methyl-3-phenylbutanamide] | 37.3% | 146 nM |  | 
(1R,2S,5R)-5-methyl-2-(propan-2-yl)cyclohexyl[(3-{[(4-chlorophenyl)acetyl]amino}-4-oxo-3,4-dihydrophthalazin-1-yl)methyl]carbamate [Example 180] |  | 1610 nM |  | 57.6%
